Several values for one entry are separate records, joined by “and”; a condition that tells them apart may be missing. Equal entries are not always repeated. Each block holds one molecule with its values, some of them ahead of it.
Experiments:
[1] = tested on: MCF-7 breast cancer cell line; assay: MTT assay, cytotoxicity against breast cancer cell line MCF-7; details: for IC50: Homo sapiens, MCF7, 48 h, read-out: In vitro cytotoxicity IC50 MCF-7; for Selectivity index: ratio of IC50 on normal cells (MCF-10a) to cancer cells (MCF-7)
Method: (§1) Human breast cancer cell line MCF-7 and normal breast cell line MCF-10a were obtained from American type culture collection, MCF-7 cells were cultured using Dulbecco’s Modified Eagle Medium DMEM (Invitrogen/Life Technologies) supplemented with 10% FBS (Hyclone), 10 µg/ml of insulin (Sigma), and 1% penicillin-streptomycin. MCF-10a cell line was cultured using DMEM medium supplemented with 10% FBS, 1% sodium pyruvate, 1% MEM NEAA, 20 ng/ml human epidermal growth factor (HEGF), 10 μg/ml insulin and 0.05 mM hydrocortisone. The cells were incubated at 37 °C in a humidified atmosphere of 5% CO2.
(§2) The anticancer effect of phenoxychalcones and N-acetylpyrazolines on the viability of both tumour and normal cells was evaluated using МТТ assay as a rapid colorimetric assay. It is based on the ability of mitochondrial dehydrogenases of viable cells to reduce yellow tetrazolium salt MTT to blue formazan in quantities proportional to the number of living cells. The cells were incubated with the medium alone or with the tested compounds at concentrations of 100 µM, 25 µM, 6.25 µM, 1.56 µM and 0.39 µM for 48 h. […] Then, 20 μL MTT solution was added to each well and mixed. After 4 h, the supernatants were removed and 100 μL DMSO was added to each well to dissolve the precipitate. The viability of cells was estimated by measuring the absorbance at 570 nm using a Bioline ELIZA plate reader. The cell viability percentage was calculated based on the absorbance ratio between cell culture treated with the compounds and the untreated control multiplied by 100. Selectivity index (SI) was calculated as the ratio of cytotoxicity (IC50) on normal cells (MCF-10a) to cancer cells (MCF-7).

[2] = MTT assay, cytotoxicity against normal breast cell line MCF-10a; details: human; for IC50 at 48 h: MCF-10a normal breast cells
Method: as §1, §2

[3] = tested on: MCF-7; details: reported chalcones of Figure 1; cited from earlier work
[4] = tested on: MCF-7 cells; assay: Cell cycle analysis by propidium iodide flow cytometry; type: cell-based, human
Method: The cell cycle analysis was carried out by flow cytometry using ab139418_propidium iodide flow cytometry kit/BD (Abcam, Cambridge, UK) according to the manufacturer instructions. […] After treatment, the cells were washed twice with ice-cold phosphate buffer saline (PBS) and collected by centrifugation. The cells were then fixed using ice-cold 66% (v/v) ethanol, washed with PBS, and re-suspended with 0.1 mg/mL RNase to digest cellular RNA and thus minimise stained RNA in the background. The cells were then stained with […] propidium iodide (PI), a fluorescent molecule with the ability to bind to nucleic acid. PI binds to the DNA in cells in proportion to its amount. As the DNA content is different among cells in different phases of cell cycle, the stage of cell growth can be determined based on fluorescence intensity. Cell fluorescence was evaluated using FacsCalibur (BD Biosciences, USA) and analysed using Cell- Quest software (Becton Dickinson)[41]. Cell cycle analysis of MCF-7 cells without any treatment was used as control.

[5] = tested on: MCF-7 cells; assay: Annexin V-FITC/PI apoptosis assay by flow cytometry; type: cell-based, human; details: 24 h
Method: Apoptosis assessment was carried out by flow cytometry using Annexin V-FITC and propidium iodide double-staining apoptosis detection kit (Biovision, USA) according to the manufacturer instructions. Annexin V is a protein with high affinity for phosphatidylserine (PS). The latter is a cell membrane component that translocate from the inner face of the plasma membrane to the cell surface soon after initiating apoptosis. […] The cells were then collected by centrifugation and re-suspended in 500 μL of binding buffer. Annexin V-FITC and PI double staining was performed by adding 5 μL of Annexin V-FITC and 5 μL of PI. The cells were then incubated in dark, at room temperature for 5 min. After incubation, cell fluorescence was evaluated using FacsCalibur (BD Biosciences, USA). Dot-plot graphs were used to illustrate the results.

[6] = tested on: MCF-7 cells; assay: Intracellular reactive oxygen species (ROS) analysis with H2DCFDA; type: cell-based, human; details: MCF-7, 1.52 µM
Method: Intracellular ROS was detected by cell-permeable fluorogenic probe H2DCFDA. Cell culture subdivided into three groups. The groups are the negative control (untreated MCF-7 cells), the positive control group (MCF-7 cells treated with H2O2), and test group (MCF-7 cells treated with compound 2c). After removing the culture supernatants, the cells were then incubated in fresh medium with 10 µM H2DCFDA at the dark at 37 °C for 1 h. The cells were washed with PBS buffer, then, harvested and the pellets were suspended in PBS. Samples were analysed ROBONIK P2000 ELISA reader wavelength 450 nm.

[7] = tested on: p38 MAPK (phosphorylated and total) in MCF-7 cells; assay: p38 MAPK (phosphorylated and total) ELISA in treated cells; type: cell-based, human; details: MCF-7, 1.52 µM, vs untreated cells
Method: Measurements were performed using ELISA kits (R&D systems, Minneapolis, MN, USA ELISA (Cat. # KHO0071) and p38 MAPK (Total) ELISA, according to the manufacturer’s instructions.

[8] = MCF-7, 1.52 µM, in comparison to the control (DMSO)
[9] = MCF-7, 1.52 µM, relative to control (DMSO)

SMILES: COc1ccc(C(=O)/C=C/c2ccc(Cl)cc2)c(Oc2cc(OC)c(OC)c(OC)c2)c1 [III]
IC50 [3]: 4.39 ± 0.26 µM

SMILES: COc1ccc(/C=C/C(=O)c2ccc(OC)cc2Oc2cc(OC)c(OC)c(OC)c2)cc1 [I]
IC50 [3]: 3.44 ± 0.19 µM

SMILES: Nc1ccc(C(=O)/C=C/c2cccc(Cl)c2)cc1 [VII]
IC50 [3]: 34.2 ± 6.4 µM

SMILES: Cc1ccc(C(=O)C=Cc2ccc(Oc3ccc(Br)cc3)cc2)cc1 [Compound 2c, 3–(4-(4-Bromophenoxy)phenyl)-1-(p-tolyl)prop-2-en-1-one]
fold more active than 2a [1]: 5.6 fold
fold more active than 2b [1]: 8.7 fold
IC50 [1]: 1.52 ± 0.03 µM
Selectivity index [1]: 15 and 15.24
IC50 [2]: 23.2 ± 0.88 µM
phase of cell cycle arrest ([4]; MCF-7, 1.52 µM): G2/M phase
cell population %G0/G1 ([4]; MCF-7, 1.52 µM (IC50), 24 h): 24.92%
cell population %G2/M ([4]; MCF-7, 1.52 µM (IC50), 24 h): 45.86%
cell population %Pre G1 ([4]; MCF-7, 1.52 µM (IC50), 24 h): 29.41%
cell population %S ([4]; MCF-7, 1.52 µM (IC50), 24 h): 29.22%
augmentation of proportion of cells in the G2/M phase [4, 8]: 4.25 fold
augmentation of proportion of cells in the pre-G1 phase [4, 8]: 16.24 fold
decline in the cell population at the G0/G1 phase [4, 9]: 54.73%
decline in the cell population at the S phase [4, 9]: 14.5%
apoptotic cells percentage, early apoptosis ([5]; MCF-7, 1.52 µM (IC50)): 5.17%
apoptotic cells percentage, late apoptosis ([5]; MCF-7, 1.52 µM (IC50)): 21.96%
percentage necrosis ([5]; MCF-7, 1.52 µM (IC50)): 2.28%
percentage of total apoptosis ([5]; MCF-7, 1.52 µM (IC50)): 29.41%
elevation in late apoptosis, fold more than control ([5]; MCF-7, 1.52 µM): 57.78 fold
increase in early apoptosis, fold more than control ([5]; MCF-7, 1.52 µM): 9.0 fold
increase in total apoptosis, fold compared to the control ([5]; MCF-7, 1.52 µM): 16.24 fold
ROS induction higher than control [6]: 10%
down-regulation of total p38 MAPK [7]: ~40%
interference with p38 MAPK phosphorylation (decrease of phosphorylated p38 MAPK) [7]: ~60%

SMILES: Cc1ccc(C(=O)/C=C/c2cccc(Cl)c2Oc2c([N+](=O)[O-])cc(C(F)(F)F)cc2[N+](=O)[O-])cc1 [II]
IC50 [3]: 0.03 ± 0.002 µM

Further lines, with some results ahead:

melting point: 143 to 145 °C
SMILES: O=C(C=Cc1ccc(Oc2ccc(Cl)cc2)cc1)c1ccc(Br)cc1 [Compound 2e, 1–(4-Bromophenyl)-3–(4-(4-chlorophenoxy)phenyl)prop-2-en-1-one]
IC50 [1]: 44.2 ± 2.16 µM
Selectivity index [1]: 0.50
IC50 at 48 h [2]: 22.1 ± 1.08 µM

melting point: 138 to 140 °C
SMILES: CC(=O)N1N=C(c2ccc(Br)cc2)CC1c1ccc(Oc2ccc(Br)cc2)cc1 (stereo not drawn) [Compound 3b, 1–(5-(4–(4-Bromophenoxy)phenyl)-3–(4-bromophenyl)-4,5-dihydro-1H-pyrazol-1-yl) ethanone]
IC50 [1]: 17.2 ± 0.62 µM
Selectivity index [1]: 0.67
IC50 at 48 h [2]: 11.5 ± 0.47 µM

melting point: 120 to 122 °C
SMILES: O=C(C=Cc1ccc(Oc2ccc(Cl)cc2)cc1)c1ccc(Cl)cc1 [Compound 2d, 3–(4-(4-Chlorophenoxy)phenyl)-1–(4-chlorophenyl)prop-2-en-1-one]
IC50 [1]: 19.9 ± 0.66 µM
Selectivity index [1]: 1.67
IC50 at 48 h [2]: 33.1 ± 1.42 µM

melting point: 116 to 118 °C
SMILES: CC(=O)N1N=C(c2ccc(Cl)cc2)CC1c1ccc(Oc2ccc(Cl)cc2)cc1 (stereo not drawn) [Compound 3d, 1–(5-(4–(4-Chlorophenoxy)phenyl)-3–(4-chlorophenyl)-4,5-dihydro-1H-pyrazol-1-yl) ethanone]
IC50 [1]: 8.51 ± 0.27 µM
Selectivity index [1]: 5.37
IC50 at 48 h [2]: 45.7 ± 1.36 µM

melting point: 164 to 166 °C
SMILES: O=C(C=Cc1ccc(Oc2ccc(Br)cc2)cc1)c1ccc(Br)cc1 [Compound 2b, 3–(4-(4-Bromophenoxy)phenyl)-1–(4-bromophenyl)prop-2-en-1-one]
IC50 [1]: 13.3 ± 0.53 µM
Selectivity index [1]: 1.91
IC50 at 48 h [2]: 25.3 ± 1.17 µM
